Test results as given in the supplement of paper PMC9663587.

Experiments:
YKL-5-124 = compound: C=CC(=O)Nc1ccc(C(=O)Nc2[nH]nc3c2CN(C(=O)N[C@H](CN(C)C)c2ccccc2)C3(C)C)cc1 [YKL-5-124]; experiment: GR value, 72 h; higher = faster growth (1 = untreated, <0 = killing);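 also: breast cancer and non-malignant breast epithelial lines, nine half-log doses, viable cells counted by Hoechst and LIVE/DEAD dye imaging versus time-zero plates and DMSO controls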
LEE011/Ribociclib = compound: CN(C)C(=O)c1cc2cnc(Nc3ccc(N4CCNCC4)cn3)nc2n1C1CCCC1 [LEE011/Ribociclib]; experiment: as above
[1] = compound: CC(=O)c1c(C)c2cnc(Nc3ccc(N4CCNCC4)cn3)nc2n(C2CCCC2)c1=O; experiment: as above
Flavopiridol = compound: CN1CC[C@H](c2c(O)cc(O)c3c(=O)cc(-c4ccccc4Cl)oc23)[C@H](O)C1 [Flavopiridol]; experiment: as above
[2] = compound: CCN1CCN(Cc2ccc(Nc3ncc(F)c(-c4cc(F)c5nc(C)n(C(C)C)c5c4)n3)nc2)CC1; experiment: as above
THZ1 = compound: CN(C)C/C=C/C(=O)Nc1ccc(C(=O)Nc2cccc(Nc3ncc(Cl)c(-c4c[nH]c5ccccc45)n3)c2)cc1 [THZ1]; experiment: as above
THZ531 = compound: CN(C)C/C=C/C(=O)Nc1ccc(C(=O)N2CCC[C@@H](Nc3ncc(Cl)c(-c4c[nH]c5ccccc45)n3)C2)cc1 [THZ531]; experiment: as above
[3] = compound: CCc1cnn2c(NCc3ccc[n+]([O-])c3)cc(N3CCCC[C@H]3CCO)nc12; experiment: as above
Buparlisib/NVP-BKM120 = compound: Nc1cc(C(F)(F)F)c(-c2cc(N3CCOCC3)nc(N3CCOCC3)n2)cn1 [Buparlisib/NVP-BKM120]
[4] = compound: CCN1CCN(Cc2ccc(Nc3ncc(F)c(-c4cc(F)c5nc(C)n(C(C)C)c5c4)n3)nc2)CC1
BSJ-03-123 = compound: CC(=O)c1c(C)c2cnc(Nc3ccc(N4CCN(CCOCCOCCOCCNC(=O)COc5cccc6c5C(=O)N(C5CCC(=O)NC5=O)C6=O)CC4)cn3)nc2n(C2CCCC2)c1=O [BSJ-03-123]
Cabozantinib = compound: COc1cc2nccc(Oc3ccc(NC(=O)C4(C(=O)Nc5ccc(F)cc5)CC4)cc3)c2cc1OC [Cabozantinib]
Paclitaxel = compound: CC(=O)O[C@H]1C(=O)[C@@]2(C)[C@H]([C@H](OC(=O)c3ccccc3)[C@]3(O)C[C@H](OC(=O)[C@H](O)[C@@H](NC(=O)c4ccccc4)c4ccccc4)C(C)=C1C3(C)C)[C@]1(OC(C)=O)CO[C@@H]1C[C@@H]2O [Paclitaxel]
[5] = compound: CCc1cnn2c(NCc3ccc[n+]([O-])c3)cc(N3CCCC[C@H]3CCO)nc12
SHP099 = compound: CC1(CCN(CC1)C2=CN=C(C(=N2)N)C3=C(C(=CC=C3)Cl)Cl)N [SHP099]
Vorinostat = compound: O=C(CCCCCCC(=O)Nc1ccccc1)NO [Vorinostat]
AZD5363 = compound: NC1(C(=O)N[C@@H](CCO)c2ccc(Cl)cc2)CCN(c2nc[nH]c3nccc2-3)CC1 [AZD5363]
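For GR50, 72 h in this document: breast cancer and non-malignant breast epithelial cell lines, Deep Dye Drop or Dye Drop imaging, nine half-log doses, GR normalized to time-zero plates and DMSO-only controls.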

HCC1569
GR value (YKL-5-124; 0.001 µM): 0.373 GR | GR value (YKL-5-124; 0.003162 µM): 0.541 GR | GR value (YKL-5-124; 0.01 µM): 0.302 GR | GR value (YKL-5-124; 0.03162 µM): 0.277 GR | GR value (YKL-5-124; 0.1 µM): 0.443 GR | GR value (YKL-5-124; 0.3162 µM): 0.124 GR | GR value (YKL-5-124; 1 µM): 0.175 GR | GR value (YKL-5-124; 3.162 µM): 0.0783 GR | GR value (YKL-5-124; 10 µM): -0.266 GR | GR value (LEE011/Ribociclib; 0.001 µM): 1.04 GR | GR value (LEE011/Ribociclib; 0.003162 µM): 1.1 GR | GR value (LEE011/Ribociclib; 0.01 µM): 1.07 GR | GR value (LEE011/Ribociclib; 0.03162 µM): 0.978 GR | GR value (LEE011/Ribociclib; 0.1 µM): 1.09 GR | GR value (LEE011/Ribociclib; 0.3162 µM): 0.913 GR | GR value (LEE011/Ribociclib; 1 µM): 1.26 GR | GR value (LEE011/Ribociclib; 3.162 µM): 1.32 GR | GR value (LEE011/Ribociclib; 10 µM): 0.86 GR | GR value ([1]; 0.0003162 µM): 0.957 GR | GR value ([1]; 0.001 µM): 0.991 GR | GR value ([1]; 0.003162 µM): 1.03 GR | GR value ([1]; 0.01 µM): 1.05 GR | GR value ([1]; 0.03162 µM): 0.928 GR | GR value ([1]; 0.1 µM): 0.938 GR | GR value ([1]; 0.3162 µM): 1.06 GR | GR value ([1]; 1 µM): 0.932 GR | GR value ([1]; 3.162 µM): 1.05 GR | GR value (Flavopiridol; 0.0001 µM): 1.24 GR | GR value (Flavopiridol; 0.0003162 µM): 1.13 GR | GR value (Flavopiridol; 0.001 µM): 0.828 GR | GR value (Flavopiridol; 0.003162 µM): 1.19 GR | GR value (Flavopiridol; 0.01 µM): 1.02 GR | GR value (Flavopiridol; 0.03162 µM): 0.846 GR | GR value (Flavopiridol; 0.1 µM): 0.422 GR | GR value (Flavopiridol; 0.3162 µM): 0.0517 GR | GR value (Flavopiridol; 1 µM): -0.284 GR | GR value ([2]; 0.001 µM): 0.941 GR | GR value ([2]; 0.003162 µM): 0.932 GR | GR value ([2]; 0.01 µM): 0.955 GR | GR value ([2]; 0.03162 µM): 1.05 GR | GR value ([2]; 0.1 µM): 0.985 GR | GR value ([2]; 0.3162 µM): 1.07 GR | GR value ([2]; 1 µM): 0.822 GR | GR value ([2]; 3.162 µM): 0.639 GR | GR value ([2]; 10 µM): 0.0637 GR | GR value (THZ1; 0.0001 µM): 1.16 GR | GR value (THZ1; 0.0003162 µM): 1.14 GR | GR value (THZ1; 0.001 µM): 1.15 GR | GR value (THZ1; 0.003162 µM): 1.42 GR | GR value (THZ1; 0.01 µM): 0.908 GR | GR value (THZ1; 0.03162 µM): 0.468 GR | GR value (THZ1; 0.1 µM): -0.112 GR | GR value (THZ1; 0.3162 µM): -0.346 GR | GR value (THZ1; 1 µM): -0.325 GR | GR value (THZ531; 0.0001 µM): 1.2 GR | GR value (THZ531; 0.0003162 µM): 1.02 GR | GR value (THZ531; 0.001 µM): 1.03 GR | GR value (THZ531; 0.003162 µM): 1.15 GR | GR value (THZ531; 0.01 µM): 1.09 GR | GR value (THZ531; 0.03162 µM): 0.907 GR | GR value (THZ531; 0.1 µM): -0.21 GR | GR value (THZ531; 0.3162 µM): -0.155 GR | GR value (THZ531; 1 µM): 0.0205 GR | GR value ([3]; 0.0001 µM): 1.03 GR | GR value ([3]; 0.0003162 µM): 0.932 GR | GR value ([3]; 0.001 µM): 1.06 GR | GR value ([3]; 0.003162 µM): 0.984 GR | GR value ([3]; 0.01 µM): 0.928 GR | GR value ([3]; 0.03162 µM): -0.0195 GR | GR value ([3]; 0.1 µM): -0.224 GR | GR value ([3]; 0.3162 µM): -0.229 GR | GR value ([3]; 1 µM): -0.251 GR | GR50, 72 h (Buparlisib/NVP-BKM120): 0.908 µM | GR50, 72 h [4]: 4.64 µM | GR50, 72 h (BSJ-03-123): 2.86 µM | GR50, 72 h (Cabozantinib): > 10 µM | GR50, 72 h (Paclitaxel): 0.00208 µM | GR50, 72 h [5]: 0.0164 µM | GR50, 72 h (SHP099): > 10 µM | GR50, 72 h (Vorinostat): 3.31 µM | GR50, 72 h (AZD5363): 0.358 µM

HCC1806
GR value (YKL-5-124; 0.001 µM): 0.386 GR | GR value (YKL-5-124; 0.003162 µM): 0.232 GR | GR value (YKL-5-124; 0.01 µM): 0.105 GR | GR value (YKL-5-124; 0.03162 µM): 0.0295 GR | GR value (YKL-5-124; 0.1 µM): -0.0411 GR | GR value (YKL-5-124; 0.3162 µM): -0.075 GR | GR value (YKL-5-124; 1 µM): -0.155 GR | GR value (YKL-5-124; 3.162 µM): -0.19 GR | GR value (YKL-5-124; 10 µM): -0.466 GR | GR value (LEE011/Ribociclib; 0.001 µM): 0.919 GR | GR value (LEE011/Ribociclib; 0.003162 µM): 0.948 GR | GR value (LEE011/Ribociclib; 0.01 µM): 0.884 GR | GR value (LEE011/Ribociclib; 0.03162 µM): 0.886 GR | GR value (LEE011/Ribociclib; 0.1 µM): 0.876 GR | GR value (LEE011/Ribociclib; 0.3162 µM): 0.824 GR | GR value (LEE011/Ribociclib; 1 µM): 0.796 GR | GR value (LEE011/Ribociclib; 3.162 µM): 0.801 GR | GR value (LEE011/Ribociclib; 10 µM): 0.699 GR | GR value ([1]; 0.0003162 µM): 1.07 GR | GR value ([1]; 0.001 µM): 1.02 GR | GR value ([1]; 0.003162 µM): 0.939 GR | GR value ([1]; 0.01 µM): 0.965 GR | GR value ([1]; 0.03162 µM): 0.851 GR | GR value ([1]; 0.1 µM): 0.695 GR | GR value ([1]; 0.3162 µM): 0.739 GR | GR value ([1]; 1 µM): 0.625 GR | GR value ([1]; 3.162 µM): 0.771 GR | GR value (Flavopiridol; 0.0001 µM): 0.956 GR | GR value (Flavopiridol; 0.0003162 µM): 1.03 GR | GR value (Flavopiridol; 0.001 µM): 1.04 GR | GR value (Flavopiridol; 0.003162 µM): 0.878 GR | GR value (Flavopiridol; 0.01 µM): 1.03 GR | GR value (Flavopiridol; 0.03162 µM): 0.926 GR | GR value (Flavopiridol; 0.1 µM): 0.659 GR | GR value (Flavopiridol; 0.3162 µM): 0.199 GR | GR value (Flavopiridol; 1 µM): -0.565 GR | GR value ([2]; 0.001 µM): 0.986 GR | GR value ([2]; 0.003162 µM): 0.943 GR | GR value ([2]; 0.01 µM): 0.894 GR | GR value ([2]; 0.03162 µM): 0.779 GR | GR value ([2]; 0.1 µM): 0.75 GR | GR value ([2]; 0.3162 µM): 0.667 GR | GR value ([2]; 1 µM): 0.447 GR | GR value ([2]; 3.162 µM): 0.129 GR | GR value ([2]; 10 µM): -0.456 GR | GR value (THZ1; 0.0001 µM): 1.08 GR | GR value (THZ1; 0.0003162 µM): 1.04 GR | GR value (THZ1; 0.001 µM): 1.04 GR | GR value (THZ1; 0.003162 µM): 1 GR | GR value (THZ1; 0.01 µM): 0.968 GR | GR value (THZ1; 0.03162 µM): 0.739 GR | GR value (THZ1; 0.1 µM): 0.323 GR | GR value (THZ1; 0.3162 µM): -0.252 GR | GR value (THZ1; 1 µM): -0.656 GR | GR value (THZ531; 0.0001 µM): 0.976 GR | GR value (THZ531; 0.0003162 µM): 0.999 GR | GR value (THZ531; 0.001 µM): 1.04 GR | GR value (THZ531; 0.003162 µM): 1.01 GR | GR value (THZ531; 0.01 µM): 1.07 GR | GR value (THZ531; 0.03162 µM): 1 GR | GR value (THZ531; 0.1 µM): 0.992 GR | GR value (THZ531; 0.3162 µM): 0.659 GR | GR value (THZ531; 1 µM): -0.489 GR | GR value ([3]; 0.0001 µM): 1.04 GR | GR value ([3]; 0.0003162 µM): 1.05 GR | GR value ([3]; 0.001 µM): 1 GR | GR value ([3]; 0.003162 µM): 1.01 GR | GR value ([3]; 0.01 µM): 0.798 GR | GR value ([3]; 0.03162 µM): -0.315 GR | GR value ([3]; 0.1 µM): -0.472 GR | GR value ([3]; 0.3162 µM): -0.465 GR | GR value ([3]; 1 µM): -0.45 GR | GR50, 72 h (Buparlisib/NVP-BKM120): 1.05 µM | GR50, 72 h [4]: 0.554 µM | GR50, 72 h (BSJ-03-123): 2.56 µM | GR50, 72 h (Cabozantinib): > 10 µM | GR50, 72 h (Paclitaxel): 0.00143 µM | GR50, 72 h [5]: 0.0134 µM | GR50, 72 h (SHP099): > 10 µM | GR50, 72 h (Vorinostat): 1.13 µM | GR50, 72 h (AZD5363): > 10 µM
